What follows are molecules tested against Glutamate receptor ionotropic, AMPA (Rattus norvegicus, UniProt P19490+P19491+P19492+P19493) (assay: Inhibition of kainate-induced currents of rat ionotropic glutamate receptor AMPA expressed in Xenopus laevis oocytes). Settings: not given; call rule not given here.
Type: cell-based, Oocyte

SMILES | IC50
CCCC(=O)N[C@@H](Cc1c[nH]c2ccccc12)C(=O)NCCCNCCCCNCCCN | 300 nM
CCCC(=O)N[C@@H](Cc1ccc2ccccc2c1)C(=O)NCCCNCCCCNCCCN | 100 nM
CCCC(=O)N1Cc2ccc(O)cc2CC1C(=O)NCCCNCCCCNCCCN (stereo not drawn) | 220 nM
CCCC(=O)N1C[C@H](OCc2ccccc2)C[C@H]1C(=O)NCCCNCCCCNCCCN | 260 nM
CCCC(=O)NC1(C(=O)NCCCNCCCCNCCCN)CCc2ccccc2C1 (stereo not drawn) | 250 nM
CCCC(=O)N[C@@H](Cc1ccc(-c2ccccc2)cc1)C(=O)NCCCNCCCCNCCCN | 80 nM
CCCC(=O)N1CCC(C(=O)NCCCNCCCCNCCCN)(c2ccccc2)CC1 | 1320 nM
CCCC(=O)N[C@H](Cc1ccc(O)cc1)C(=O)NCCCNCCCCNCCCN | 70 nM
CCCC(=O)N1c2ccccc2CC1C(=O)NCCCNCCCCNCCCN (stereo not drawn) | 1390 nM
CCCC(=O)NC1(C(=O)NCCCNCCCCNCCCN)Cc2ccccc2C1 | 190 nM
CCCC(=O)N[C@H](C(=O)NCCCNCCCCNCCCN)C(c1ccccc1)c1ccccc1 | 300 nM
CCCC(=O)N1C[C@@H](Oc2ccc3ccccc3c2)C[C@H]1C(=O)NCCCNCCCCNCCCN | 1040 nM
CCCC(=O)N1Cc2ccccc2C[C@H]1C(=O)NCCCNCCCCNCCCN | 370 nM
CCCC(=O)N[C@H](C(=O)NCCCNCCCCNCCCN)c1ccccc1 | 320 nM
CCCC(=O)N[C@@H](CCc1ccccc1)C(=O)NCCCNCCCCNCCCN | 170 nM
CCCC(=O)N[C@@H](Cc1ccccc1)C(=O)NCCCNCCCCNCCCN | 430 nM
CCCC(=O)N[C@@H](Cc1ccc(O)cc1)C(=O)NCCCNCCCCNCCCN [PHILANTHOTOXIN 343] | 130 nM

These molecules were tested against Glutamate receptor ionotropic, AMPA (Rattus norvegicus, UniProt P19491+P19492+P19493+P19490) (assay: Inhibition of kainate-induced currents of rat ionotropic glutamate receptor AMPA expressed in Xenopus laevis oocytes; not active). Settings: oocyte.
Glutamate receptor ionotropic, AMPA (Rattus norvegicus, UniProt P19491+P19492+P19493+P19490), sequence (P19491 whole entry): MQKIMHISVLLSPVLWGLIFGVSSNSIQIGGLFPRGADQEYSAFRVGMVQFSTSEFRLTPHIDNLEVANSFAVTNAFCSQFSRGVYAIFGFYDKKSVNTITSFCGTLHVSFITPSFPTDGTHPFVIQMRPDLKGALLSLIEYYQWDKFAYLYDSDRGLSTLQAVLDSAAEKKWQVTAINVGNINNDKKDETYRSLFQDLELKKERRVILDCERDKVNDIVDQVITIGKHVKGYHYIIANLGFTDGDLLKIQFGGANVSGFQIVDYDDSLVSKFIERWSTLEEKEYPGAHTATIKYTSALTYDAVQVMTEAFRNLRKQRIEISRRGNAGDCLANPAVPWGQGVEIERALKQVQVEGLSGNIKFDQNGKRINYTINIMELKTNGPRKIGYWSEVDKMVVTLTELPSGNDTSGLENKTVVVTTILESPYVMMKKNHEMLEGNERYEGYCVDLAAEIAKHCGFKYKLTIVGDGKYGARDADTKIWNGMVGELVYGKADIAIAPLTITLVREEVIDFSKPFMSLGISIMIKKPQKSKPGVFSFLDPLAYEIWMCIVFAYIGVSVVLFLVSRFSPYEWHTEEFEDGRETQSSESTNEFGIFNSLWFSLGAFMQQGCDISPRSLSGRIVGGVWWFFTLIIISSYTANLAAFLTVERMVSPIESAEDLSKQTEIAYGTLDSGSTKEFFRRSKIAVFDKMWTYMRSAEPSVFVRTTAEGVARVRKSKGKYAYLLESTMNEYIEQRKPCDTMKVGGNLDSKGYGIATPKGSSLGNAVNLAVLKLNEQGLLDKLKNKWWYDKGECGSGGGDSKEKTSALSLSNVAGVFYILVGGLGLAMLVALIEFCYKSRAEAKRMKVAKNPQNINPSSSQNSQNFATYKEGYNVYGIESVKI
Glutamate receptor ionotropic, AMPA (Rattus norvegicus, UniProt P19491+P19492+P19493+P19490), sequence (P19492 whole entry): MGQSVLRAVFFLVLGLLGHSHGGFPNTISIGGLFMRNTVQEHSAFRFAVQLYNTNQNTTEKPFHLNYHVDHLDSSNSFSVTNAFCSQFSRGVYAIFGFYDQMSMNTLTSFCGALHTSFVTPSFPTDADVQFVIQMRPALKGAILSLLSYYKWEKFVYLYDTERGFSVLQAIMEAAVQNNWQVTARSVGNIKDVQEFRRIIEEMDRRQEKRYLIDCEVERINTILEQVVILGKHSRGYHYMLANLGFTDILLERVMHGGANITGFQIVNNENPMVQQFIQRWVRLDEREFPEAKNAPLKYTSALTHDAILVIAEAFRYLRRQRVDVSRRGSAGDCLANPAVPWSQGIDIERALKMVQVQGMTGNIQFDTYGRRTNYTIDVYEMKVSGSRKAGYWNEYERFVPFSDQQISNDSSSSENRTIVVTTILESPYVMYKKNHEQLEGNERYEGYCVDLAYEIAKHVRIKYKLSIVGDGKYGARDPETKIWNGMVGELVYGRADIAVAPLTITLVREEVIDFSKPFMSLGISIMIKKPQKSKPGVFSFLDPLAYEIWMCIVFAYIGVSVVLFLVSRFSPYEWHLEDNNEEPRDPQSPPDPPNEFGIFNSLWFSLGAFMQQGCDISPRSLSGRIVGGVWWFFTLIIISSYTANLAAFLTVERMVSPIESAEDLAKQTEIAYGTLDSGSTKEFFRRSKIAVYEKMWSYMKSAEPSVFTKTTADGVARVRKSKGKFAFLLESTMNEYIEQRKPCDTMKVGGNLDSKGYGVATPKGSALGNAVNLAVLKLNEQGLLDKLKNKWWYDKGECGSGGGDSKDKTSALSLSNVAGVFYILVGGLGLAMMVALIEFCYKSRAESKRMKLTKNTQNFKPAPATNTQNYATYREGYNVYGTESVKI
Glutamate receptor ionotropic, AMPA (Rattus norvegicus, UniProt P19491+P19492+P19493+P19490), sequence (P19493 whole entry): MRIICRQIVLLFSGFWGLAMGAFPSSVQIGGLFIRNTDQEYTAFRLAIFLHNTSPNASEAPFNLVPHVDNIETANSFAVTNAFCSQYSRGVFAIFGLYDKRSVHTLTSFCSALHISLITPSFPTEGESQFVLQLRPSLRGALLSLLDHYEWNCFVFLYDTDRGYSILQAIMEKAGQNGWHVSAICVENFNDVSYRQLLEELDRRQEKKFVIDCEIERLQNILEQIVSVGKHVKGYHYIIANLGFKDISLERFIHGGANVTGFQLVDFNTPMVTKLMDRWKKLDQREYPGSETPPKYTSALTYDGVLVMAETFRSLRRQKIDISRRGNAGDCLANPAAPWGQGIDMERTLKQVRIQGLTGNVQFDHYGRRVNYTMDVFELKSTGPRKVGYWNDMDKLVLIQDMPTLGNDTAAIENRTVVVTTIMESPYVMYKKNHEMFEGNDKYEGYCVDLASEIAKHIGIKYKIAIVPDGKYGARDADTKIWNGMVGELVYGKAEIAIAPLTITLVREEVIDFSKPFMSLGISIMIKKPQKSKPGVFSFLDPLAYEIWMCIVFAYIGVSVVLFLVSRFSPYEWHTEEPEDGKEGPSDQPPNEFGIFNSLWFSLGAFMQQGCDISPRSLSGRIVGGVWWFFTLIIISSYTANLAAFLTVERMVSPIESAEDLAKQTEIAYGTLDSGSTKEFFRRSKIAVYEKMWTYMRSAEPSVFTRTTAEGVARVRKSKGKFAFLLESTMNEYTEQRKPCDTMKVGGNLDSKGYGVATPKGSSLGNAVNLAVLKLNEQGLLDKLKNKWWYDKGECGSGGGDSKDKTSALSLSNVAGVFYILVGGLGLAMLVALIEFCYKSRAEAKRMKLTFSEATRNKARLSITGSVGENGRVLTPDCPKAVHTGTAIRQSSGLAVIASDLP
Glutamate receptor ionotropic, AMPA (Rattus norvegicus, UniProt P19491+P19492+P19493+P19490), sequence (P19490 whole entry): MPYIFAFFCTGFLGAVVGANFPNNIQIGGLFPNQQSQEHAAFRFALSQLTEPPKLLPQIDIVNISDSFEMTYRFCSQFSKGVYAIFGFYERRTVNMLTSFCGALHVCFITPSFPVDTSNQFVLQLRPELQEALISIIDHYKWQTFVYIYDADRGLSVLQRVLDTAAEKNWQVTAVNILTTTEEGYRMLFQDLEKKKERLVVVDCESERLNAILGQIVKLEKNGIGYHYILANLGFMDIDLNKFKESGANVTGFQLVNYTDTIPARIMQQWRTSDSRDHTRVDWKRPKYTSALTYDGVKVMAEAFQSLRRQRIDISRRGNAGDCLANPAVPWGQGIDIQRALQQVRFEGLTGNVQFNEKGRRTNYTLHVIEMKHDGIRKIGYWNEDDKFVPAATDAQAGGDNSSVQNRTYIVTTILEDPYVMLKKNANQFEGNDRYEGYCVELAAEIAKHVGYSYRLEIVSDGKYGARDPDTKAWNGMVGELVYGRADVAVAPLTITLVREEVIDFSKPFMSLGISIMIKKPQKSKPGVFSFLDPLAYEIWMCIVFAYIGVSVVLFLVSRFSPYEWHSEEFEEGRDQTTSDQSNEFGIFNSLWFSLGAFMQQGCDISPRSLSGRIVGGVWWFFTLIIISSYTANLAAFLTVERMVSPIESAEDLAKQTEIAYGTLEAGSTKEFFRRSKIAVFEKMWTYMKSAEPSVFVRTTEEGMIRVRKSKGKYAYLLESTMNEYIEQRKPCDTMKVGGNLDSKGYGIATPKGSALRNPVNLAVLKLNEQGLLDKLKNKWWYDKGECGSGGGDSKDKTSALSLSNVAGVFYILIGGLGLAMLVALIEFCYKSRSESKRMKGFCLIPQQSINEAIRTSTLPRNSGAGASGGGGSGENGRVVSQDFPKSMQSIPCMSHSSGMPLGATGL
Type: cell-based

SMILES | IC50
NCCCNCCCCNCCCNC(=O)c1cc2ccccc2[nH]1 | Not Active

Reference: ChEMBL document CHEMBL1139497, “The effects of conformational constraints and steric bulk in the amino acid moiety of philanthotoxins on AMPAR antagonism” (J Med Chem, 2005)
